Laboratory results: PubChem BioAssay AID330 (DTP/NCI, 2004)
Values joined by “and” are separate entries in the source; they are usually repeats but may differ in a detail not shown here. Equal entries are not always repeated. Toxic doses and inconclusive results are not listed. How the source made its calls: active means survival T/C of 150% or more; inactive means T/C below 125% in these data.

Test system: P388 leukemia ip, CD2F1 mice, survival T/C
Test: NCI In Vivo Anticancer Drug Screen. Data for tumor model P388 Leukemia (intraperitoneal) in CD2F1 (CDF1) mice
Settings: endpoint: median survival time, higher = longer survival
Outline: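 Mice carrying the transplanted tumor received test compound or vehicle. Survival was recorded in each group, and the value is the treated-group measurement divided by that of the vehicle-treated control group.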

[1] = dose: 6.25 mg/kg/injection, schedule: Q01DX009 (ip), vehicle: saline
[2] = dose: 12.5 mg/kg/injection, schedule: Q01DX009 (ip), vehicle: saline
[3] = dose: 60.0 mg/kg/injection, schedule: Q01DX005 (ip), vehicle: saline with Tween-80
[4] = dose: 120.0 mg/kg/injection, schedule: Q01DX005 (ip), vehicle: saline with Tween-80
[5] = dose: 240.0 mg/kg/injection, schedule: Q01DX005 (ip), vehicle: saline with Tween-80
[6] = dose: 15.0 mg/kg/injection, schedule: Q01DX005 (ip), vehicle: saline with Tween-80
[7] = dose: 30.0 mg/kg/injection, schedule: Q01DX005 (ip), vehicle: saline with Tween-80

Measured: T/C

CNc1nc(N(C)C)nc(N(C)C)n1
inactive: dose: 6.25 mg/kg/injection, schedule: Q01DX009 (ip), vehicle: water 105 % of control and 96 % of control | dose: 12.5 mg/kg/injection, schedule: Q01DX009 (ip), vehicle: water 105 % of control | dose: 16.0 mg/kg/injection, schedule: Q03HX008 (ip), vehicle: water 102 % of control | dose: 16.0 mg/kg/injection, schedule: Q03HX016 (ip), vehicle: water 96 % of control | dose: 16.0 mg/kg/injection, schedule: Q03HX024 (ip), vehicle: water 96 % of control | dose: 25.0 mg/kg/injection, schedule: Q01DX009 (ip), vehicle: water 105 % of control | dose: 30.0 mg/kg/injection, schedule: Q01DX009 (ip), vehicle: water 104 % of control | dose: 32.0 mg/kg/injection, schedule: Q01DX005 (ip), vehicle: water 99 % of control | dose: 32.0 mg/kg/injection, schedule: Q01DX009 (ip), vehicle: water 86 % of control | dose: 32.0 mg/kg/injection, schedule: Q01DX009 (oral), vehicle: water 110 % of control | dose: 32.0 mg/kg/injection, schedule: Q01DX009 (sc), vehicle: water 106 % of control | dose: 32.0 mg/kg/injection, schedule: Q03HX008 (ip), vehicle: water 103 % of control | dose: 32.0 mg/kg/injection, schedule: Q03HX016 (ip), vehicle: water 100 % of control | dose: 32.0 mg/kg/injection, schedule: Q03HX024 (ip), vehicle: water 114 % of control | dose: 44.0 mg/kg/injection, schedule: Q01DX009 (ip), vehicle: water 104 % of control | dose: 50.0 mg/kg/injection, schedule: Q01DX009 (ip), vehicle: water 112 % of control | dose: 64.0 mg/kg/injection, schedule: Q01DX001 (ip), vehicle: water 102 % of control | dose: 64.0 mg/kg/injection, schedule: Q01DX001 (oral), vehicle: water 103 % of control | dose: 64.0 mg/kg/injection, schedule: Q01DX005 (ip), vehicle: water 109 % of control | dose: 64.0 mg/kg/injection, schedule: Q01DX009 (ip), vehicle: water 93 % of control | dose: 64.0 mg/kg/injection, schedule: Q01DX009 (oral), vehicle: water 115 % of control | dose: 64.0 mg/kg/injection, schedule: Q01DX009 (sc), vehicle: water 117 % of control | dose: 64.0 mg/kg/injection, schedule: Q04DX003 (ip), vehicle: water 105 % of control | dose: 64.0 mg/kg/injection, schedule: Q08DX002 (ip), vehicle: water 103 % of control | dose: 67.0 mg/kg/injection, schedule: Q01DX009 (ip), vehicle: water 116 % of control | dose: 128.0 mg/kg/injection, schedule: Q01DX001 (ip), vehicle: water 102 % of control | dose: 128.0 mg/kg/injection, schedule: Q01DX001 (oral), vehicle: water 101 % of control | dose: 128.0 mg/kg/injection, schedule: Q01DX005 (ip), vehicle: water 99 % of control | dose: 128.0 mg/kg/injection, schedule: Q01DX009 (oral), vehicle: water 96 % of control | dose: 128.0 mg/kg/injection, schedule: Q01DX009 (sc), vehicle: water 86 % of control | dose: 128.0 mg/kg/injection, schedule: Q04DX003 (ip), vehicle: water 112 % of control | dose: 128.0 mg/kg/injection, schedule: Q08DX002 (ip), vehicle: water 114 % of control | dose: 256.0 mg/kg/injection, schedule: Q01DX001 (oral), vehicle: water 100 % of control

CC(C)[CH2][Pb]([CH2]C(C)C)([CH2]C(C)C)[n]1ccnc1
inactive: dose: 3.12 mg/kg/injection, schedule: Q01DX009 (ip), vehicle: saline 101 % of control | [1] 108 % of control | [2] 111 % of control

COC(=O)c1nnn(-c2ccc(Cl)cc2Cl)c1C(=O)c1ccc(Cl)c(Cl)c1
inactive: [3] 101 % of control | [4] 100 % of control | [5] 95 % of control

c1cc2onc3c4cccc5onc(c(c1)c23)c54
inactive: dose: 8.75 mg/kg/injection, schedule: Q01DX005 (ip), vehicle: Klucel (hydroxypropylcellulose) (HPC) 99 % of control | dose: 17.5 mg/kg/injection, schedule: Q01DX005 (ip), vehicle: Klucel (hydroxypropylcellulose) (HPC) 93 % of control | dose: 35.0 mg/kg/injection, schedule: Q01DX005 (ip), vehicle: Klucel (hydroxypropylcellulose) (HPC) 99 % of control

C=C(C)[C@H]1C[C@@H]2O[C@]2(C)[C@@H](O)C1
inactive: dose: 100.0 mg/kg/injection, schedule: Q04DX002 (ip), vehicle: saline 94 % of control | dose: 200.0 mg/kg/injection, schedule: Q04DX002 (ip), vehicle: saline 102 % of control | dose: 400.0 mg/kg/injection, schedule: Q04DX002 (ip), vehicle: saline 96 % of control

Nc1ccc2c(SCCCCCCSc3c4ccccc4nc4cc(N)ccc34)c3ccccc3nc2c1
inactive: [3] 100 % of control | [4] 101 % of control | [5] 104 % of control

CCOC(=O)CCC(Cl)(Cl)Cl
inactive: dose: 50.0 mg/kg/injection, schedule: Q01DX009 (ip), vehicle: Klucel (hydroxypropylcellulose) (HPC) 100 % of control | dose: 100.0 mg/kg/injection, schedule: Q01DX009 (ip), vehicle: Klucel (hydroxypropylcellulose) (HPC) 100 % of control | dose: 200.0 mg/kg/injection, schedule: Q01DX009 (ip), vehicle: Klucel (hydroxypropylcellulose) (HPC) 97 % of control

Cc1cc2nc(CC(=O)c3cccc([N+](=O)[O-])c3)c(=O)[nH]c2cc1C
inactive: dose: 7.5 mg/kg/injection, schedule: Q01DX005 (ip), vehicle: saline with Tween-80 95 % of control | [6] 96 % of control | [7] 91 % of control

Cc1ccc2nc(=O)c3cccnc3n2c1
inactive: dose: 3.75 mg/kg/injection, schedule: Q01DX005 (ip), vehicle: saline 103 % of control | dose: 7.5 mg/kg/injection, schedule: Q01DX005 (ip), vehicle: saline 97 % of control | dose: 15.0 mg/kg/injection, schedule: Q01DX005 (ip), vehicle: saline 98 % of control

O=C(CSc1ccccn1)C1=S=C2C=CC=CN2C1=O
inactive: dose: 50.0 mg/kg/injection, schedule: Q01DX005 (ip), vehicle: saline with Tween-80 92 % of control | dose: 100.0 mg/kg/injection, schedule: Q01DX005 (ip), vehicle: saline with Tween-80 95 % of control | dose: 200.0 mg/kg/injection, schedule: Q01DX005 (ip), vehicle: saline with Tween-80 93 % of control

COc1ccc2c(NCCNc3c4ccccc4nc4cc(OC)ccc34)c3ccccc3nc2c1
inactive: dose: 0.62 mg/kg/injection, schedule: Q01DX009 (ip), vehicle: other 90 % of control | dose: 1.25 mg/kg/injection, schedule: Q01DX009 (ip), vehicle: other 90 % of control | dose: 2.5 mg/kg/injection, schedule: Q01DX009 (ip), vehicle: other 96 % of control | dose: 5.0 mg/kg/injection, schedule: Q01DX009 (ip), vehicle: other 100 % of control | dose: 10.0 mg/kg/injection, schedule: Q01DX009 (ip), vehicle: other 106 % of control | dose: 20.0 mg/kg/injection, schedule: Q01DX009 (ip), vehicle: other 96 % of control

Oc1ccc(Br)cc1C=NCCS
inactive: [6] 97 % of control | [7] 94 % of control | [5] 89 % of control

CCOC(=O)C1C/C(=N\O)c2ccc(OC)c(OC)c2C1 (configuration not stated)
inactive: dose: 25.0 mg/kg/injection, schedule: Q01DX009 (ip), vehicle: other 101 % of control | dose: 50.0 mg/kg/injection, schedule: Q01DX009 (ip), vehicle: other 91 % of control | dose: 100.0 mg/kg/injection, schedule: Q01DX009 (ip), vehicle: other 93 % of control | dose: 200.0 mg/kg/injection, schedule: Q01DX009 (ip), vehicle: other 97 % of control | dose: 400.0 mg/kg/injection, schedule: Q01DX009 (ip), vehicle: other 100 % of control

Nc1n[nH]c(CO)n1
inactive: [1] 95 % of control | [2] 91 % of control | dose: 25.0 mg/kg/injection, schedule: Q01DX009 (ip), vehicle: saline 104 % of control | dose: 50.0 mg/kg/injection, schedule: Q01DX009 (ip), vehicle: saline 99 % of control

CCCCN(C)c1ncnc2[nH]ncc12
inactive: dose: 100.0 mg/kg/injection, schedule: Q04DX003 (ip), vehicle: saline 100 % of control

CCCNc1ncc(C(=O)O)c(=O)[nH]1
inactive: dose: 1.56 mg/kg/injection, schedule: Q01DX009 (ip), vehicle: saline with Tween-80 104 % of control | dose: 3.12 mg/kg/injection, schedule: Q01DX009 (ip), vehicle: saline with Tween-80 95 % of control | dose: 6.25 mg/kg/injection, schedule: Q01DX009 (ip), vehicle: saline with Tween-80 95 % of control
